Series [1] relates to subjects with bilateral patello-femoral knee osteoarthritis. Briefly: Same study: MRI-based periarticular bone area and 3D bone shape (AAM, B Score). It counts as in vivo, human. An excerpt: The 3D bone shape change can be quantified using active appearance modelling (AAM). AAM enables encoding of the 3D shape and appearance of an object using multiple anchor points (“principal components”) on the surface of the object. These principal components describe computationally the specific 3D shape of the object. The use of AAM to represent femur, tibia, and patella shapes has been described in detail by Neogi, et. al. (Neogi 2013).
The MRI images of each knee used in cartilage thickness measurement were used to measure surface area of the periarticular bone in lateral and medial femur, lateral and medial trochlear femur, lateral and medial tibia, as well as lateral and medial patella. Bone shape scores in femur, trochlear femur, tibia, and patella were also measured using the same MRI images.
All KOOS subscale scores, WOMAC Total score and subscale scores, MRI-based patello-femoral and tibiofemoral cartilage thickness, and MRI-based periarticular bone area and 3D bone shape were analyzed.
MRI images were provided to central readers cartilage and periarticular bone measures. Central readers were blind as to treatment assignment.
Bone area and 3D shape of periarticular bone were analyzed using AAM software developed by iMorphics (www.imorphics.com) specifically for assessing these parameters in the osteoarthritic knee.
Statistical analyses were carried out using a two-sided paired t-test at the 5% level of significance. The outcome variables were the differences of the change of the score of each subscale of KOOS, change of cartilage thickness, periarticular bone area, and 3D bone shape score (“B Score”) change from baseline to 6 and 12 months in the treated knee (“Index Knee”) compared with the placebo-exposed knee (“Control Knee”).
Change in periarticular bone area and 3D bone shape as measured by MRI was also compared between Index and Control Knee groups. It should be noted that there were eight subjects whose MRI images were of insufficient quality and were excluded from bone area and shape analyses. Therefore, each evaluable treatment arm consisted of 85 knees.

Series [2] shares this test system. In words: Example 2: re-analysis of the study with stricter MRI image qualification (79 subjects). It counts as in vivo, human. How it is done: After the data analyses in EXAMPLE 1, a few more MRI images were questioned with regard to their technical quality to enable assessment of periarticular bone shape change over time. In order to assure the quality of the overall analysis results, a stricter qualification standard was applied to the MRI images used in EXAMPLE 1, and requalification was performed. Seventy-nine (79) subjects were requalified. The MRI knee images of these subjects were re-analyzed for their periarticular bone shape changes, as well as their correlations with the changes of tibiofemoral cartilage thickness and pain, respectively, in the same manner as described in EXAMPLE 1.
The requalified 79 subjects were included in the efficacy analysis per the Statistical Analysis Plan.

Another series has as its system defects in human molar. In words: Phase 2 study of dentin formation in defects in human molar. It counts as in vivo. The conditions noted are these: both Phase 2 studies. The method, then: (§1) Based on these safety and bone and dentin formation data, TPX-100 was tested in two Phase 2 studies for alveolar bone and dentin formation activities, respectively.
The subject of another series is alveolar bone. In words: Phase 2 study of alveolar bone formation. It counts as in vivo, human. The conditions noted are these: drug vs placebo. The method, then: as §1
Series [3] has as its system cultured neonatal mouse calvaria. The conditions noted are these: cited from earlier work.
The subject of another series is rat long bone fracture. The note with it: cited from earlier work.
For the next series, the system named is rat dental defect. The note with it: in vivo; cited from earlier work.
Where [4] appears, read: Example 2, 79 requalified subjects, Index vs Control knees, 6 or 12 month, or both.
Setting [5] is: Example 2, Index vs Control Knees, 12 months.

Entries after “also recorded” stand apart in the source; their conditions may differ.

For the substance “TPX-100: synthetic peptide consisting of 23 amino acids, TDLQERGDNDISPFSGDGQPFKD, derived from human Matrix Extracellular Phosphoglycoprotein (MEPE)”, in series [1] (Index Knees, first 6 months), the “Mean bone shape change rate” value was 0.03; the “Periarticular bone area change, lateral femur, lateral patella and medial patella” value is given as “nearly zero in all regions”. In addition, the “3D periarticular bone shape change of femur (B score)” value in series [1] (Index vs Control Knees, 6 and 12 months (p=0.005 and 0.007)) is recorded as “statistically significant decrease in shape change compared to Control Knees; also recorded: statistically significant (p<0.05) difference in favor of Index Knees”. Also, the “Periarticular bone area increase, medial femur” value in series [1] (Index vs Control Knees, 6 months) is “less periarticular bone area increase as compared to Control Knees at 6 months, with a trend toward statistical significance (p=0.08); also recorded: less pathological bone area increase as compared to Control Knee at 6 months, with a trend toward statistical significance (p=0.08)”. Further, in series [1] (Index vs Control Knees, 12 months), the “Periarticular bone area increase, lateral femur, lateral and medial patella” value is “slower increase at 12 months compared with Control Knees”. In addition, the “3D periarticular bone shape changes in tibia and patella” value in series [1] (Index vs Control Knees, no statistically significant difference) is “slower changes in Index Knees as compared to Control Knees”. The “3D bone shape change of patella in pain frequency responder group” value in series [1] (responders, through 12 months) was “remained approximately zero through 12 months; also recorded: eventually no change in the 3D bone shape in patella”. In addition, in series [2] (setting [4]), the “KOOS ADL improvement” value was “clinically meaningful and statistically significant (p<0.05) improvements”; the “KOOS Knee-related QOL improvement” value is “clinically meaningful and statistically significant (p<0.05) improvements”; the “WOMAC Function improvement” value was “clinically meaningful and statistically significant (p<0.05) improvements”. Moreover, the “3D periarticular femur bone shape change (bone shape score)” value in series [2] (Example 2, Index vs Control Knees, 6 and 12 months) was “statistically significant (p<0.05) delay of femur bone shape change”. Besides, in series [2] (setting [5]), the “KOOS Pain subscale improvement” value was “clinically meaningful improvement in Index Knees with a trend towards statistical significance (p<0.09)”, the “Pain bending knee fully (KOOS Pain question)” value is “significantly improved (p<0.05)”, the “Pain frequency (KOOS Pain question)” value is reported as “significantly improved (p<0.05)” and the “Pain going up or down stairs (KOOS Pain question)” value is on record as “significantly improved (p<0.05)”. In addition, in series [2] (Example 2, responders), the “3D bone shape change in patella in pain frequency responders” value is “eventually no change in the 3D bone shape in patella”. The “Pain frequency in responders, baseline to 12 months” value in series [2] (Example 2, responders to TPX-100) was “decreased from daily pain at baseline to semi-monthly pain at 12 months”. Besides, the “Tolerability in two Phase 2 studies (alveolar bone, dentin)” value in the series with defects in human molar was “well tolerated in both studies”. In the series with alveolar bone, the Alveolar bone formation entry was “did not show a difference between drug vs. placebo-exposed groups”. Also, the “Bone formation activity in calvaria culture” value in series [3] is given as “thickening of cultured neonatal mouse calvaria”. For the same substance, the “Tolerability in in vivo bone formation and dentin formation studies” value in the series on rat long bone fracture (rat bone formation and dentin formation studies) is “well tolerated”. Further, in the series on rat long bone fracture (subcutaneous injection), the Bone fracture healing entry is “acceleration of bone fracture healing”. Moreover, the Dentin formation entry in the series with rat dental defect is listed as “promote dentin formation”.
